# Laboratory results from patent US20020136691A1, “Pharmacological evaluation test (PET) in animals for continuous assessment of physiological functions” (priority 2000, published 2002).
# Experiments:
# [1] = test system: Sprague Dawley rats; assay: Cardiovascular monitoring (blood pressure, heart rate) by DSI telemetry; format: in vivo
# Experimental: For the cardiovascular/renal function arm, a Data Sciences International (DSI, St Paul, Minn.) TA11PA-C40 implant was placed in the abdominal aorta of each rat.
# Cardiovascular function and motility were assessed in conscious freely moving rats using DSI telemetry recording equipment. On the day of recording, the rats were placed into metabolism cages for simultaneous urine collection. Parameters monitored included blood pressure (BP), heart rate (HR) and activity. Measurements were taken at scheduled intervals (i.e., 10 sec. of data collection once every 2 min. for each rat) over 24 hours. An appropriate baseline period of at least 30 minutes was collected prior to animal dosing. For dosing, rats were briefly removed from their cage, weighed, dosed and returned.
# Blood pressure, heart rate and activity were measured for 10 seconds once every 2 minutes for 24 hours. Blood pressure and heart rate were routinely evaluated at baseline, 30 min, 1 h, 2 h, 4 h, 6 h, 8 h, 12 h, 16 h and 20 h post-administration. The last 20 minutes before the start of treatment on Day 1, time-point values were averaged and taken as the baseline value for each rat. The other time-point values were obtained by averaging data 10 minutes prior and 10 minutes post each time-point. […] An analysis of variance was performed with the factors: treatment, animal (according to treatment), time, and treatment time interaction; time incorporated all measurements on the four days. The adjusted mean values post-treatment were compared with baseline. If there was a significant treatment time interaction, tests were performed for comparing the three treatment groups for each time-point. If such a test was significant, the adjusted mean values of the treated group were compared with the concurrent vehicle group for this time-point.
# [2] = test system: Sprague Dawley rats; assay: Pulmonary function, BUXCO unrestrained whole body plethysmograph; format: in vivo
# Experimental: For rats in the pulmonary/CNS arm, pulmonary function (respiratory frequency and tidal volume) was assessed incorporating the BUXCO Unrestrained Whole Body Plethysmograph technique. Rats were placed in a BUXCO chamber, and a 10-minute baseline-recording period was collected. Following the baseline-recording period, the rats were removed from the chambers, orally dosed and returned for a 60-minute period of data collection. At the conclusion of the experiment, the rats were removed from the chambers, and tested for modified Irwin profiling.
# The respiratory signal was measured continuously for 10 minutes prior to dosing and […] post-dosing. Respiratory frequency and tidal volume were then extracted from this respiratory signal, and evaluated on a breath-by-breath basis over the course of a one-minute period. These calculated breath-by-breath values for respiratory frequency and tidal volume were averaged over 5-minute segments for the extent of the monitoring period. The time course for these values was then plotted as the mean ±standard deviation for each group studied. An analysis of variance similar to that described above for cardiovascular parameters was also performed.
# [3] = test system: Sprague Dawley rats; format: in vivo
# Experimental: Additional CNS monitoring was performed following pulmonary function assessment in that arm of the study. Rats were returned to their home cages and at 65 minutes post-dosing, the rats were placed in Plexiglas observation cylinders. Compound treated rats were systematically compared to vehicle treated rats for behavioral, neurologic and autonomic changes according to a modification of the method described by Irwin. […] The following functions were assessed: increased/decreased motor activity, ataxia, paralysis, tremor, convulsions, abnormal respiration, enhanced salivation, skin color, abnormal feces, death, righting reflex, visual orientation, grip reflex, muscle tone, rectal body temperature, and tail pinch. Body temperatures were also recorded both prior to dosing (baseline) and during modified Irwin testing post-dosing using a Yellow Springs Instruments Telethermometer and rectal probe or equivalent. Following modified Irwin testing, rats were administered anesthesia to effect and blood was collected.
# For body temperatures, CBC values, clinical chemistry values, plasma levels and organ weight ratios, means were calculated (±standard deviation or standard error of the mean) and reported where applicable. Statistical evaluations for compound related effects were performed using the Student's t test (paired) and reported as significant if p<0.05.
# [4] = test system: Sprague Dawley rats; assay: Renal function monitoring (urine collection in metabolism cages); format: in vivo; details: 10 and 30 mg/kg p.o., acute; males and females (FIG. 4)
# Experimental: Renal function monitoring was conducted simultaneously with cardiovascular testing. Urine was collected for 0-8 and 8-24 hour time-points. Prior to telemetry data collection, DSI receivers equipped with special mounting strips were hung upside down on metabolism racks (Lab Products, Maywood, N.J.). Metabolism cages were then suspended from the DSI receivers and assembled to provide for food, water, and urine collection. […] Rats were weighed and placed into the recording metabolism cages for a baseline collection period (i.e., 30 minutes). After baseline, each rat was removed, dosed and returned. Pre-weighed collection tubes were placed under each metabolism cage. At 8 hours, the collection tubes were removed, weighed, and replaced with another set of pre-weighed tubes for the 8-24 hour time-point. At 24 hours, collection tubes were again removed and weighed. Following the 24 hour urine collection, rats were anesthetized and blood was collected.
# Renal function was evaluated in the cardiovascular/renal function arm. Urine volume was calculated gravimetrically at each time-point. Urine flow was then calculated by (urine volume/time times or ×100/body weight (g)). Flow values were then plotted as the mean ±standard deviation for each group. […] Statistical significance (p<0.05) was assessed using the paired Student's t test.
# [5] = test system: Wistar rats; details: 1, 3 or 10 mg/kg p.o., acute
# [6] = Body weight, PET rat study; format: in vivo, Sprague Dawley rats; details: 300 and 1000 mg/kg p.o., subacute; males and females (FIG. 3)
# Experimental: FIG. 3. […] Individual rat body weights were recorded daily in grams using an Ohaus Navigator™ digital balance.
# Male and female Sprague Dawley rats from Charles River were used in these experiments. For the “standard” protocol, a total of 48 rats were used. Twenty-four rats (12 female rats and 12 male rats) were placed in the acute pulmonary function/CNS evaluation arm of the study, and 24 rats (12 female rats and 12 male rats) were placed in the subacute cardiovascular/renal arm of the study. Rats in both arms were further divided into 4 subgroups (3 male rats and 3 female rats) which were dosed with vehicle or compound at dose 1, dose 2; or dose 3. Rats in the pulmonary function/CNS evaluation arm of the study were administered a single dose of vehicle or compound. […]
# Rats in the cardiovascular/renal function arm of the study (with telemetry implants) were administered daily doses of vehicle or compound for 5 days. Blood pressure, heart rate and motility were continuously monitored 24 hours/day over four days via telemetry recording. Urine was collected 0-8 and 8-24 hours post-dosing on Days 1 and 4 and assessed for changes in volume output and electrolyte excretion. […]
# Cardiovascular function and motility were assessed in conscious freely moving rats using DSI telemetry recording equipment. […] Parameters monitored included blood pressure (BP), heart rate (HR) and activity. […]
smiles,measurement,setting,value
CN1C(=O)CN=C(c2ccccc2)c2cc(Cl)ccc21 [diazepam],Effects in the CV system,[1]; 20 and 80 mg/kg p.o.,No relevant effects
same,Effects in the pulmonary system,[2]; 20 and 80 mg/kg p.o.,No relevant effects
same,Modified Irwin profiling,"[3]; rat, in vivo","dose dependent effects on motility, coordination, muscle tone and body temperature"
NS(=O)(=O)c1cc(C(=O)O)c(NCc2ccco2)cc1Cl [furosemide],Urine output,[4],dose dependently increased
C[C@H](N)Cc1ccccc1 [d-amphetamine],BP,"[1]; males, 8 mg/kg p.o.",slightly increased
same,HR,"[1]; males, 8 mg/kg p.o.",slightly increased
same,Respiratory frequency,"[2]; 2 and 8 mg/kg p.o., male and female, acute and subacute dosing (FIG. 1)",increased in a dose dependent manner
same,Overt behavioral effects observed,"[3]; 2 and 8 mg/kg p.o., male and female, acute and subacute","increased motility, sniffing, rearing, head weaving and vocalization"
COC(=O)C1=C(C)NC(C)=C(C(=O)OC)C1c1ccccc1[N+](=O)[O-] [nifedipine],Body temperature,[5],No effects
same,Heart rate,[5],dose dependent increase
same,Motility,[5],No effects
same,Respiration,[5],No effects
C[C@]12C=CC(=O)C=C1CC[C@@H]1[C@@H]2[C@@H](O)C[C@@]2(C)[C@H]1CC[C@]2(O)C(=O)CO [prednisolone],Effects in the CV system,[1]; 300 and 1000 mg/kg p.o.,No relevant effects
same,Body weight,[6],decrease in body weight
